Results taken from PubChem BioAssay (NCI).
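Growth conditions: 96-well plates. Treatment: test compound, 48 hours, 5 concentrations. Analysis: linear interpolation between bracketing concentrations; unreached endpoints set to highest concentration. GI50: concentration for 50% inhibition of growth. Definition used: TGI = concentration required for complete inhibition of growth.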

Columns and labels:
Test in all cases: NCI anticancer screen, dose series, 48 h
HL-60(TB) leukemia = test system: HL-60(TB) leukemia
MDA-MB-231 breast = test system: MDA-MB-231 breast
SNB-19 CNS = test system: SNB-19 CNS
SK-MEL-28 melanoma = test system: SK-MEL-28 melanoma
NCI-H460 lung = test system: NCI-H460 lung
DU-145 prostate = test system: DU-145 prostate
K-562 leukemia = test system: K-562 leukemia
SF-295 CNS = test system: SF-295 CNS
HS 578T breast = test system: HS 578T breast
NCI-H23 lung = test system: NCI-H23 lung
CCRF-CEM leukemia = test system: CCRF-CEM leukemia
NCI-H522 lung = test system: NCI-H522 lung
SF-268 CNS = test system: SF-268 CNS
HCC-2998 colon = test system: HCC-2998 colon
ACHN renal = test system: ACHN renal
SR leukemia = test system: SR leukemia
EKVX NSCLC = test system: EKVX NSCLC
A549 NSCLC = test system: A549 NSCLC
KM12 colon = test system: KM12 colon
SK-OV-3 ovarian = test system: SK-OV-3 ovarian
OVCAR-4 ovarian = test system: OVCAR-4 ovarian
A498 renal = test system: A498 renal
UO-31 renal = test system: UO-31 renal
HOP-62 NSCLC = test system: HOP-62 NSCLC
MALME-3M melanoma = test system: MALME-3M melanoma
NCI-H226 lung = test system: NCI-H226 lung
TK-10 renal = test system: TK-10 renal
UACC-257 melanoma = test system: UACC-257 melanoma
UACC-62 melanoma = test system: UACC-62 melanoma
OVCAR-5 ovarian = test system: OVCAR-5 ovarian
HCT-116 colon = test system: HCT-116 colon
COLO 205 colon = test system: COLO 205 colon
MDA-MB-435 = test system: MDA-MB-435
IGROV1 ovarian = test system: IGROV1 ovarian
HOP-92 NSCLC = test system: HOP-92 NSCLC
MCF7 breast = test system: MCF7 breast
HT29 colon = test system: HT29 colon
SK-MEL-5 melanoma = test system: SK-MEL-5 melanoma
PC-3 prostate = test system: PC-3 prostate
RXF 393 renal = test system: RXF 393 renal
RPMI-8226 leukemia = test system: RPMI-8226 leukemia
MOLT-4 leukemia = test system: MOLT-4 leukemia
SN12C renal = test system: SN12C renal
786-0 renal = test system: 786-0 renal
SNB-75 CNS = test system: SNB-75 CNS
SK-MEL-2 melanoma = test system: SK-MEL-2 melanoma
SF-539 CNS = test system: SF-539 CNS
HCT-15 colon = test system: HCT-15 colon
NCI/ADR-RES ovarian = test system: NCI/ADR-RES ovarian
CAKI-1 renal = test system: CAKI-1 renal
SW-620 colon = test system: SW-620 colon
U251 CNS = test system: U251 CNS
BT-549 breast = test system: BT-549 breast
OVCAR-8 ovarian = test system: OVCAR-8 ovarian
OVCAR-3 ovarian = test system: OVCAR-3 ovarian
LOX IMVI melanoma = test system: LOX IMVI melanoma
T-47D breast = test system: T-47D breast
M14 melanoma = test system: M14 melanoma

Work on CCOc1cc2ncc(C#N)c(Nc3ccc(F)c(Cl)c3)c2cc1NC(=O)/C=C/CN(C)C yielded a GI50 (HL-60(TB) leukemia) of 570 nM, a TGI (HL-60(TB) leukemia) greater than 5510 nM and a GI50 (MDA-MB-231 breast) of 882 nM. It also gave a TGI (MDA-MB-231 breast) of 5070 nM, a GI50 (SNB-19 CNS) of 1610 nM and a TGI (SNB-19 CNS) greater than 10000 nM. The GI50 (SK-MEL-28 melanoma) was 1080 nM, the TGI (SK-MEL-28 melanoma) was greater than 4730 nM and the GI50 (NCI-H460 lung) was 655 nM. It also gave a TGI (NCI-H460 lung) of 4260 nM, a GI50 (DU-145 prostate) of 50 nM and a TGI (DU-145 prostate) of 1620 nM. The GI50 (K-562 leukemia) was 360 nM, the TGI (K-562 leukemia) was greater than 4210 nM and the GI50 (SF-295 CNS) was 2250 nM. It also gave a TGI (SF-295 CNS) greater than 10000 nM, a GI50 (HS 578T breast) of 381 nM and a TGI (HS 578T breast) greater than 10000 nM. For the same compound, the GI50 (NCI-H23 lung) was 1320 nM, the TGI (NCI-H23 lung) was greater than 7420 nM and the GI50 (CCRF-CEM leukemia) was 1130 nM. The TGI (CCRF-CEM leukemia) was greater than 7160 nM, the GI50 (NCI-H522 lung) was 23.1 nM and the TGI (NCI-H522 lung) was 732 nM. It also gave a GI50 (SF-268 CNS) of 265 nM, a TGI (SF-268 CNS) greater than 6990 nM and a GI50 (HCC-2998 colon) of 1130 nM. The TGI (HCC-2998 colon) was greater than 10000 nM, the GI50 (ACHN renal) was 23.2 nM and the TGI (ACHN renal) was 1800 nM. The GI50 (SR leukemia) was 414 nM, the TGI (SR leukemia) was 2400 nM and the GI50 (EKVX NSCLC) was 18.7 nM. For the same compound, the TGI (EKVX NSCLC) was greater than 6510 nM, the GI50 (A549 NSCLC) was 324 nM and the TGI (A549 NSCLC) was greater than 9660 nM. It also gave a GI50 (KM12 colon) of 1220 nM, a TGI (KM12 colon) of 3010 nM and a GI50 (SK-OV-3 ovarian) of 22 nM. The TGI (SK-OV-3 ovarian) was 139 nM, the GI50 (OVCAR-4 ovarian) was 235 nM and the TGI (OVCAR-4 ovarian) was 4100 nM. For the same compound, the GI50 (A498 renal) was 145 nM, the TGI (A498 renal) was 799 nM and the GI50 (UO-31 renal) was 46 nM. The TGI (UO-31 renal) was greater than 3460 nM, the GI50 (HOP-62 NSCLC) was 1270 nM and the TGI (HOP-62 NSCLC) was greater than 10000 nM. The GI50 (MALME-3M melanoma) was 360 nM, the TGI (MALME-3M melanoma) was 1870 nM and the GI50 (NCI-H226 lung) was 584 nM. It also gave a TGI (NCI-H226 lung) greater than 5010 nM, a GI50 (TK-10 renal) of 4.45 nM and a TGI (TK-10 renal) of 506 nM. The GI50 (UACC-257 melanoma) was 1270 nM, the TGI (UACC-257 melanoma) was greater than 6030 nM and the GI50 (UACC-62 melanoma) was 449 nM. The TGI (UACC-62 melanoma) was greater than 5090 nM, the GI50 (OVCAR-5 ovarian) was 344 nM and the TGI (OVCAR-5 ovarian) was greater than 5930 nM. For the same compound, the GI50 (HCT-116 colon) was 333 nM, the TGI (HCT-116 colon) was 1830 nM and the GI50 (COLO 205 colon) was 1330 nM. It also gave a TGI (COLO 205 colon) of 2830 nM, a GI50 (MDA-MB-435) of 323 nM and a TGI (MDA-MB-435) of 1420 nM. For the same compound, the GI50 (IGROV1 ovarian) was 26.9 nM, the TGI (IGROV1 ovarian) was 466 nM and the GI50 (HOP-92 NSCLC) was 254 nM. It also gave a TGI (HOP-92 NSCLC) greater than 4390 nM, a GI50 (MCF7 breast) of 1230 nM and a TGI (MCF7 breast) of 5560 nM. The GI50 (HT29 colon) was 827 nM, the TGI (HT29 colon) was greater than 5950 nM and the GI50 (SK-MEL-5 melanoma) was 2930 nM. For the same compound, the TGI (SK-MEL-5 melanoma) was greater than 10000 nM, the GI50 (PC-3 prostate) was 1190 nM and the TGI (PC-3 prostate) was greater than 9000 nM. The GI50 (RXF 393 renal) was 255 nM, the TGI (RXF 393 renal) was 3460 nM and the GI50 (RPMI-8226 leukemia) was 1040 nM. The TGI (RPMI-8226 leukemia) was 3330 nM, the GI50 (MOLT-4 leukemia) was 716 nM and the TGI (MOLT-4 leukemia) was greater than 4910 nM. The GI50 (SN12C renal) was 173 nM, the TGI (SN12C renal) was greater than 6030 nM and the GI50 (786-0 renal) was 339 nM. For the same compound, the TGI (786-0 renal) was 2000 nM, the GI50 (SNB-75 CNS) was 228 nM and the TGI (SNB-75 CNS) was greater than 3710 nM. The GI50 (SK-MEL-2 melanoma) was 349 nM, the TGI (SK-MEL-2 melanoma) was greater than 3210 nM and the GI50 (SF-539 CNS) was 826 nM. For the same compound, the TGI (SF-539 CNS) was 2310 nM, the GI50 (HCT-15 colon) was 245 nM and the TGI (HCT-15 colon) was 4070 nM. It also gave a GI50 (NCI/ADR-RES ovarian) of 679 nM, a TGI (NCI/ADR-RES ovarian) greater than 10000 nM and a GI50 (CAKI-1 renal) of 27.8 nM. The TGI (CAKI-1 renal) was 952 nM, the GI50 (SW-620 colon) was 485 nM and the TGI (SW-620 colon) was 3230 nM. The GI50 (U251 CNS) was 625 nM, the TGI (U251 CNS) was greater than 4890 nM and the GI50 (BT-549 breast) was 665 nM. The TGI (BT-549 breast) was greater than 7780 nM, the GI50 (OVCAR-8 ovarian) was 295 nM and the TGI (OVCAR-8 ovarian) was greater than 9220 nM. It also gave a GI50 (OVCAR-3 ovarian) of 216 nM, a TGI (OVCAR-3 ovarian) of 1770 nM and a GI50 (LOX IMVI melanoma) of 761 nM. For the same compound, the TGI (LOX IMVI melanoma) was 2140 nM, the GI50 (T-47D breast) was 108 nM and the TGI (T-47D breast) was greater than 3370 nM. The GI50 (M14 melanoma) was 312 nM and the TGI (M14 melanoma) was 1830 nM.
